Experimental data published in ChEMBL document CHEMBL4732094, “Synthesis of some new benzoxazole derivatives and investigation of their anticancer activities” (Eur J Med Chem, 2021).

Key:
[1] = Selectivity index, ratio of IC50 for cytotoxicity against mouse NIH3T3 cells to IC50 for cytotoxicity against human MCF7 cells; assay type: toxicity, cell-based; settings: NIH3T3 cells versus MCF7 cells, read-out: Ratio IC50
[2] = Selectivity index, ratio of IC50 for cytotoxicity against mouse NIH3T3 cells to IC50 for cytotoxicity against human HepG2 cells; assay type: toxicity, cell-based; settings: NIH3T3 cells versus HepG2 cells, read-out: Ratio IC50
[3] = Selectivity index, ratio of IC50 for cytotoxicity against mouse NIH3T3 cells to IC50 for cytotoxicity against human A549 cells; assay type: toxicity, cell-based; settings: NIH3T3 cells versus A549 cells, read-out: Ratio IC50
C6 = test: Cytotoxicity against rat C6 cells assessed as cell viability measured after 24 hrs by MTT assay; assay type: functional, cell-based; settings: C6, 24 h
HT-29 = test: Cytotoxicity against human HT-29 cells assessed as cell viability measured after 24 hrs by MTT assay; assay type: functional, cell-based; settings: HT-29, 24 h
A549 = test: Cytotoxicity against human A549 cells assessed as cell viability measured after 24 hrs by MTT assay; assay type: functional, cell-based; settings: A549, 24 h
HepG2 = test: Cytotoxicity against human HepG2 cells assessed as cell viability measured after 24 hrs by MTT assay; assay type: functional, cell-based; settings: HepG2, 24 h
MCF7 = test: Cytotoxicity against human MCF7 cells assessed as cell viability measured after 24 hrs by MTT assay; assay type: functional, cell-based; settings: MCF7, 24 h
[4] = Selectivity index, ratio of IC50 for cytotoxicity against mouse NIH3T3 cells to IC50 for cytotoxicity against human HT-29 cells; assay type: toxicity, cell-based; settings: NIH3T3 cells versus HT-29 cells, read-out: Ratio IC50
[5] = Selectivity index, ratio of IC50 for cytotoxicity against mouse NIH3T3 cells to IC50 for cytotoxicity against rat C6 cells; assay type: toxicity, cell-based; settings: NIH3T3 cells versus C6 cells, read-out: Ratio IC50
NIH3T3 = test: Cytotoxicity against mouse NIH3T3 cells assessed as cell viability measured after 24 hrs by MTT assay; assay type: cell-based; settings: NIH3T3, 24 h

SMILES	selectivity ratio [1]	selectivity ratio [2]	selectivity ratio [3]	IC50 (C6)	IC50 (HT-29)	IC50 (A549)	IC50 (HepG2)	IC50 (MCF7)	selectivity ratio [4]	selectivity ratio [5]	IC50 (NIH3T3)
Cc1cc(-c2nc3cc(F)ccc3o2)ccc1NC(=O)CN1CCN(CCN(C)C)CC1	5.96	6.56	8.42	10.7 µM	6.6 µM	7.37 µM	9.46 µM	10.4 µM	9.41	5.8	62.1 µM
Cc1cc(-c2nc3cc(Cl)ccc3o2)ccc1NC(=O)CCl	< 0.09	0.25	0.09	> 100 µM	> 100 µM	91.5 µM	35 µM	> 100 µM	< 0.09	< 0.09	8.64 µM
O=C(CCl)Nc1ccc(-c2nc3cc(F)ccc3o2)cc1	2.82	1.13	0.24	2.99 µM	6.93 µM	37.7 µM	8.12 µM	3.26 µM	1.33	3.07	9.19 µM
Cc1cc(-c2nc3cc(F)ccc3o2)ccc1NC(=O)CN1CCN(CCCN(C)C)CC1	8.45	9.19	5.39	11.8 µM	6.7 µM	12.2 µM	7.15 µM	7.77 µM	9.8	5.59	65.7 µM
Cc1ccc2oc(-c3ccc(NC(=O)CCl)c(C)c3)nc2c1	0.07	0.12	0.11	97.6 µM	13.8 µM	61.8 µM	54.8 µM	96.5 µM	0.49	0.07	6.79 µM
Cc1cc(-c2nc3ccccc3o2)ccc1NC(=O)CN1CCN(CCN(C)C)CC1	1.53	3.2	2.09	42.7 µM	12.9 µM	30.5 µM	19.9 µM	41.6 µM	4.94	1.49	63.5 µM
Cc1ccc2oc(-c3ccc(NC(=O)CCl)cc3)nc2c1	2.5	0.54	0.32	4.04 µM	15.2 µM	36.1 µM	21.5 µM	4.62 µM	0.76	2.86	11.6 µM
CN(C)CCCN1CCN(CC(=O)Nc2ccc(-c3nc4ccccc4o3)cc2)CC1	0.71	1.76	0.91	42.3 µM	10.6 µM	18.3 µM	9.5 µM	23.4 µM	1.57	0.39	16.7 µM
Cc1cc(-c2nc3cc(Cl)ccc3o2)ccc1NC(=O)CN1CCN(CCCN(C)C)CC1	0.45	2.56	2.73	14.2 µM	9.15 µM	10.5 µM	11.2 µM	63.4 µM	3.12	2.01	28.6 µM
Cc1cc(-c2nc3ccccc3o2)ccc1NC(=O)CCl	0.41	0.82	0.36	27.2 µM	13.8 µM	33.5 µM	14.8 µM	29.8 µM	0.88	0.45	12.2 µM
Cc1ccc2oc(-c3ccc(NC(=O)CN4CCN(CCN(C)C)CC4)c(C)c3)nc2c1	0.06	0.44	0.51	16.6 µM	7.24 µM	11 µM	12.8 µM	90.3 µM	0.78	0.34	5.67 µM
